Assay results reported in ChEMBL document CHEMBL1201862, “PubChem BioAssay data set” (2004).
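Five concentrations, 48 hours, 96-well plates. GI50 marks 50% less growth.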 Active and inactive are the calls of the source. Cut-off read from the data, not from the text of the source: active = GI50 up to about 1.1 µM and inactive = higher.

How the values were obtained:
Assay in all cases: growth of human tumour cells (NCI), 48 h
[1] = system: A498
[2] = system: A549
[3] = system: COLO 205
[4] = system: DU-145
[5] = system: HCC 2998
[6] = system: HOP-62
[7] = system: HT-29
[8] = system: Hs-578T
[9] = system: PC-3
[10] = system: RPMI-8226
[11] = system: RXF 393
[12] = system: SF-268
[13] = system: SF-295
[14] = system: SK-OV-3
[15] = system: SN12C
[16] = system: SNB-19
[17] = system: SNB-75
[18] = system: SW-620
[19] = system: UACC-62
[20] = system: UO-31

| Structure (SMILES) | GI50 [1] | GI50 [2] | GI50 [3] | GI50 [4] | GI50 [5] | GI50 [6] | GI50 [7] | GI50 [8] | GI50 [9] | GI50 [10] | GI50 [11] | GI50 [12] | GI50 [13] | GI50 [14] | GI50 [15] | GI50 [16] | GI50 [17] | GI50 [18] | GI50 [19] | GI50 [20] |
| --- | --- | --- | --- | --- | --- | --- | --- | --- | --- | --- | --- | --- | --- | --- | --- | --- | --- | --- | --- | --- |
| O=C(Cc1ccc(Cl)c(Cl)c1)NCCCN1CCN(CCCN2CCCCC2)CC1 | 16.4 µM (inactive) | 20.6 µM (inactive) | 13.2 µM (inactive) | 40.5 µM (inactive) | 2.89 µM (inactive) | 17 µM (inactive) | 10.8 µM (inactive) | 14.1 µM (inactive) | 18.5 µM (inactive) | 2.71 µM (inactive) | 13.2 µM (inactive) | 19.5 µM (inactive) | 19 µM (inactive) | 19.2 µM (inactive) | 18.8 µM (inactive) | 26.9 µM (inactive) | 19.5 µM (inactive) | 19.9 µM (inactive) | 3.84 µM (inactive) | 1.84 µM (inactive) |
| Cc1ccc(-c2c(-c3ccccc3)[nH]c(C)c2C(=O)ONC(=O)c2ccccc2)cc1 | 12.7 µM (inactive) | 2.52 µM (inactive) | 11.7 µM (inactive) | 1.82 µM (inactive) | 15.5 µM (inactive) | 1.99 µM (inactive) | 7.83 µM (inactive) | 2.01 µM (inactive) | 5.92 µM (inactive) | 3.46 µM (inactive) | 1.87 µM (inactive) | 2.36 µM (inactive) | 1.93 µM (inactive) | 14.4 µM (inactive) | 2.53 µM (inactive) | 6.38 µM (inactive) | 1.92 µM (inactive) | 8.51 µM (inactive) | 10.2 µM (inactive) | 0.303 µM (active) |
| COc1ccc(/C=N/NS(=O)(=O)c2ccc(/C=C3\NC(=O)NC3=O)cc2)cc1 | > 100 µM (inactive) | > 100 µM (inactive) | > 100 µM (inactive) | > 100 µM (inactive) | > 100 µM (inactive) | > 100 µM (inactive) | > 100 µM (inactive) | 28.1 µM (inactive) | > 100 µM (inactive) | > 100 µM (inactive) | > 100 µM (inactive) | 28.1 µM (inactive) | 89.5 µM (inactive) | 73.5 µM (inactive) | > 100 µM (inactive) | 90.8 µM (inactive) | 23.9 µM (inactive) | > 100 µM (inactive) | > 100 µM (inactive) | > 100 µM (inactive) |
| COc1cc(C2c3cc4c(cc3OC(NNS(=O)(=O)c3ccc(C)cc3)C2C)OCO4)cc(OC)c1OC (stereo not given) | 1.26 µM (inactive) | 2.6 µM (inactive) | 2.81 µM (inactive) | 3.83 µM (inactive) | 2.94 µM (inactive) | 0.817 µM (active) | 1.34 µM (inactive) | 1.26 µM (inactive) | 1.28 µM (inactive) | 2.08 µM (inactive) | 1.76 µM (inactive) | 3.95 µM (inactive) | 0.989 µM (active) | 4.13 µM (inactive) | 4.21 µM (inactive) | 3.58 µM (inactive) | 3.02 µM (inactive) | 1.01 µM (active) | 1.36 µM (inactive) | 5.14 µM (inactive) |
| Brc1c2c(c(Br)c3nsnc13)N=S=N2 | 42.6 µM (inactive) | 78.5 µM (inactive) | 41.5 µM (inactive) | > 87.1 µM (inactive) | > 58.6 µM (inactive) | 3.48 µM (inactive) | 34.4 µM (inactive) | 21 µM (inactive) | 32.7 µM (inactive) | 22 µM (inactive) | 15 µM (inactive) | 26.3 µM (inactive) | 27.1 µM (inactive) | 46.2 µM (inactive) | 17.4 µM (inactive) | 26.1 µM (inactive) | 25.1 µM (inactive) | 29 µM (inactive) | 16.2 µM (inactive) | 22.8 µM (inactive) |
| C[C@H]1O[C@@H](O[C@H]2[C@@H](O)C[C@H](O[C@H]3[C@@H](O)C[C@H](O[C@H]4CC[C@@]5(C)[C@H](CC[C@@H]6[C@@H]5CC[C@]5(C)[C@@H](C7=CC(=O)OC7)[C@@H](O)C[C@]65O)C4)O[C@@H]3C)O[C@@H]2C)C[C@H](O)[C@@H]1O [GITOXIN] | 0.237 µM (active) | 0.0719 µM (active) | 0.798 µM (active) | 0.0822 µM (active) | 4.19 µM (inactive) | 0.566 µM (active) | 0.177 µM (active) | 0.562 µM (active) | 0.259 µM (active) | 0.197 µM (active) | 0.0991 µM (active) | 0.152 µM (active) | 0.169 µM (active) | 0.39 µM (active) | 0.164 µM (active) | 0.714 µM (active) | 0.703 µM (active) | 0.258 µM (active) | 0.418 µM (active) | 0.219 µM (active) |
